In US11230543B2, “Biaryl monobactam compounds and methods of use thereof for the treatment of bacterial infections” (priority 2015, dated 2022):
Structures can show the parent of a compound that is named as a salt.

Experiments:
[1] = tested on: Klebsiella pneumoniae expressing KPC-1 (CL6569); experiment: Antibiotic activity: growth inhibitory concentration (OD600), Klebsiella pneumoniae CL6569; format: cell-based; settings: lowest concentration inhibiting 95% of bacterial growth; in the presence of β lactamase inhibitor Relebactam 4 μg/mL; 35±2° C. for 22 hours; tested range 100 μM to 0.098 μM
Method: (§1) Antibiotic Activity: Determination of Growth Inhibitory Concentration
(§2) The concentrations of compounds required to inhibit the growth of various strains of bacteria were determined in an assay that assessed bacterial growth by measuring optical density at 600 nm (OD600). The bacterial strains tested included the clinical strains Escherichia coli expressing NDM-1 (CLB30016), Klebsiella pneumoniae expressing KPC-1 (CL6569), Acinetobacter baumannii expressing TEM-1, AmpC, and Oxa-24/40 (CL6188) and Pseudomonas aeruginosa expressing AmpC (CL5701). All compounds were tested in the presence of a β lactamase inhibitor (BLi, Relebactam) in 384-well microplates. The clinical strains were stored as frozen single use stocks, thawed and diluted into 1.1× cation-adjusted Mueller-Hinton II broth to achieve approximately 2×10^5 CFU/mL. Test compounds were dissolved in DMSO and diluted 1:50 in the assay, resulting in a final concentration range of 100 μM to 0.098 μM. On the day of the assay, 1 μL of test compound was added to the plate followed by 4 μL of 50 μg/mL BLi in MOPS buffer and 45 μL of diluted bacteria. Plates were centrifuged at 1000 rpm for 30 seconds, shaken at approximately 800 rpm for 1 minute, and incubated at 35±2° C. for 22 hours. The concentration of BLi used in the assay was 4 μg/mL. At the end of the incubation, absorbance at 600 nm was determined using a spectrophotometer. Inhibition was quantitated by identifying the lowest concentration of test compound that was required to inhibit 95% of the growth of the bacteria. The results for Examples 1-126 are reported in Table I, expressed as the concentration of compound that inhibited 95% of bacterial growth (Minimum Inhibitory Threshold Concentration; MITC95).

[2] = tested on: Pseudomonas aeruginosa expressing AmpC (CL5701); experiment: Antibiotic activity: growth inhibitory concentration (OD600), Pseudomonas aeruginosa CL5701; format: cell-based; settings: lowest concentration inhibiting 95% of bacterial growth; in the presence of β lactamase inhibitor Relebactam 4 μg/mL; 35±2° C. for 22 hours; tested range 100 μM to 0.098 μM
Method: as §1, §2

Structure (SMILES) | KP_CL6569 MITC95 [1] [µM] | PA_CL5701 MITC95 [2] [µM]
C[n+]1cc(-c2ccc(OC[C@H](O/N=C(\C(=O)N[C@@H]3C(=O)N(OS(=O)(=O)[O-])C3(C)C)c3csc(N)n3)C(=O)O)cc2)ccc1CNCCN [Example 78, (S)-3-((Z)-2-(((S)-2-(4-(6-(((2-aminoethyl)amino)methyl)-1-methylpyridin-1-ium-3-yl)phenoxy)-1-carboxyethoxy)imino)-2-(2-aminothiazol-4-yl)acetamido)-2,2-dimethyl-4-oxoazetidin-1-yl sulfate] | 0.7813 | 12.5
CC1(C)[C@H](NC(=O)/C(=N\O[C@@H](COc2ccc(-c3cn(CCCN)cn3)cc2)C(=O)O)c2csc(N)n2)C(=O)N1OS(=O)(=O)O [Example 10, (S)-3-(4-(1-(3-Aminopropyl)-1H-imidazol-4-yl)phenoxy)-2-((((Z)-1-(2-aminothiazol-4-yl)-2-(((S)-2,2-dimethyl-4-oxo-1-(sulfooxy)azetidin-3-yl)amino)-2-oxoethylidene)amino)oxy)propanoic acid] | 0.3906 | 6.25
Cc1cc(-c2ccc(OC[C@H](O/N=C(\C(=O)N[C@@H]3C(=O)N(OS(=O)(=O)O)C3(C)C)c3csc(N)n3)C(=O)O)cc2)n(CCCN)[n+]1C.O=C([O-])C(F)(F)F [Example 21, 1-(3-aminopropyl)-5-(4-((S)-2-((((Z)-1-(2-aminothiazol-4-yl)-2-(((S)-2,2-dimethyl-4-oxo-1-(sulfooxy)azetidin-3-yl)amino)-2-oxo-ethylidene)amino)oxy)-2-carboxyethoxy)phenyl)-2,3-dimethyl-1H-pyrazol-2-ium 2,2,2-trifluoroacetate] | 0.3906 | 12.5
CC(CN)Nc1ccc(-c2ccc(OC[C@H](O/N=C(\C(=O)N[C@@H]3C(=O)N(OS(=O)(=O)[O-])C3(C)C)c3csc(N)n3)C(=O)O)cc2)c[n+]1C (stereo partly drawn) [Example 75, (3S)-3-((Z)-2-(((1S)-2-(4-(6-((1-aminopropan-2-yl)amino)-1-methylpyridin-1-ium-3-yl)phenoxy)-1-carboxyethoxy)imino)-2-(2-aminothiazol-4-yl)acetamido)-2,2-dimethyl-4-oxoazetidin-1-yl sulfate] | 0.1953 | 3.125
C[n+]1cc(-c2ccc(OC[C@](C)(O/N=C(\C(=O)N[C@@H]3C(=O)N(OS(=O)(=O)O)C3(C)C)c3csc(N)n3)C(=O)O)cc2)cn1CCCN (single isomer, unassigned) [Example 23B, 2,2,2-trifluoroacetate] | 3.125 | 25
Cn1c(-c2ccc(OC[C@H](O/N=C(\C(=O)N[C@@H]3C(=O)N(OS(=O)(=O)O)C3(C)C)c3csc(N)n3)C(=O)O)cc2)cn(CC(CN)CN)c1=N [Example 55, (S)-3-(4-(1-(3-amino-2-(aminomethyl)propyl)-2-imino-3-methyl-2,3-dihydro-1H-imidazol-4-yl)phenoxy)-2-((((Z)-1-(2-aminothiazol-4-yl)-2-(((S)-2,2-dimethyl-4-oxo-1-(sulfooxy)azetidin-3-yl)amino)-2-oxoethylidene)amino)oxy)propanoic acid] | 0.1953 | 1.563
COC(=O)[C@H](COc1ccc(-c2cn(CCCN)[n+](C)c2)cc1)O/N=C(\C(=O)N[C@@H]1C(=O)N(OS(=O)(=O)[O-])C1(C)C)c1csc(N)n1 [Example 117, (S)-3-((Z)-2-((((S)-3-(4-(1-(3-aminopropyl)-2-methyl-1H-pyrazol-2-ium-4-yl)phenoxy)-1-methoxy-1-oxopropan-2-yl)oxy)imino)-2-(2-aminothiazol-4-yl)acetamido)-2,2-dimethyl-4-oxoazetidin-1-yl sulfate] | 3.125 | 25
C[n+]1cc(-c2ccc(OC[C@H](O/N=C(\C(=O)N[C@@H]3C(=O)N(OS(=O)(=O)O)C3(C)C)c3csc(N)n3)C(=O)O)cc2)cn1CC(O)CN (stereo partly drawn) [Example 42, (3S)-3-((Z)-2-(((1S)-2-(4-(1-(3-amino-2-hydroxypropyl)-2-methyl-1H-pyrazol-2-ium-4-yl)phenoxy)-1-carboxyethoxy)imino)-2-(2-aminothiazol-4-yl)acetamido)-2,2-dimethyl-4-oxoazetidin-1-yl sulfate] | 0.3906 | 3.125
C[n+]1cc(-c2ccc(OC[C@H](O/N=C(\C(=O)N[C@@H]3C(=O)N(OS(=O)(=O)[O-])C3(C)C)c3csc(N)n3)C(=O)O)cc2)ccc1NC(CN)CN [Example 82, (S)-3-((Z)-2-(2-aminothiazol-4-yl)-2-(((S)-1-carboxy-2-(4-(6-((1,3-diaminopropan-2-yl)amino)-1-methylpyridin-1-ium-3-yl)phenoxy)ethoxy)imino)acetamido)-2,2-dimethyl-4-oxoazetidin-1-yl sulfate] | 0.1953 | 3.125
C[n+]1ccc(-c2ccc(OC[C@H](O/N=C(\C(=O)N[C@@H]3C(=O)N(OS(=O)(=O)[O-])C3(C)C)c3csc(N)n3)C(=O)O)cc2)cc1NCCCN [Example 63, (S)-3-((Z)-2-(((S)-2-(4-(2-((3-aminopropyl)amino)-1-methylpyridin-1-ium-4-yl)phenoxy)-1-carboxyethoxy)imino)-2-(2-aminothiazol-4-yl)acetamido)-2,2-dimethyl-4-oxoazetidin-1-yl sulfate] | 0.3906 | 6.25
C[n+]1cc(-c2ccc(OC[C@H](O/N=C(\C(=O)N[C@@H]3C(=O)N(OS(=O)(=O)O)C3(C)C)c3csc(N)n3)C(=O)O)cc2F)cn1CC(N)CN (single isomer, unassigned) [Example 46] | 0.3906 | 6.25
CC1(C)[C@H](NC(=O)/C(=N\O[C@@H](COc2ccc(-c3cn(CCCN)[n+](CCN)c3)cc2)C(=O)O)c2csc(N)n2)C(=O)N1OS(=O)(=O)[O-] [Example 100, (S)-3-((Z)-2-(((S)-2-(4-(2-(2-aminoethyl)-1-(3-aminopropyl)-1H-pyrazol-2-ium-4-yl)phenoxy)-1-carboxyethoxy)imino)-2-(2-aminothiazol-4-yl)acetamido)-2,2-dimethyl-4-oxoazetidin-1-yl sulfate] | 0.39 | 3.125
C[n+]1cc(-c2ccc(OCC(C)(O/N=C(\C(=O)N[C@@H]3C(=O)N(OS(=O)(=O)O)C3(C)C)c3nc(N)sc3Cl)C(=O)O)cc2)cn1CCCN (stereo in doubt) [Example 51A, (S)-3-((Z)-2-(2-Amino-5-chlorothiazol-4-yl)-2-((((R)-1-(4-(1-(3-aminopropyl)-2-methyl-1H-pyrazol-2-ium-4-yl)phenoxy)-2-carboxypropan-2-yl)oxy)imino)acetamido)-2,2-dimethyl-4-oxoazetidin-1-yl sulfate] | 0.7813 | 3.125
C[n+]1cc(-c2ccc(OC[C@H](O/N=C(\C(=O)N[C@@H]3C(=O)N(OS(=O)(=O)O)C3(C)C)c3csc(N)n3)C(=O)O)cc2)ccc1CCCN [Example 88, (S)-3-((Z)-2-(((S)-2-(4-(6-(3-aminopropyl)-1-methylpyridin-1-ium-3-yl)phenoxy)-1-carboxyethoxy)imino)-2-(2-aminothiazol-4-yl)acetamido)-2,2-dimethyl-4-oxoazetidin-1-yl sulfate] | 0.3906 | 3.125
C[n+]1cc(-c2ccc(OC[C@H](O/N=C(\C(=O)N[C@@H]3C(=O)N(OS(=O)(=O)[O-])C3(C)C)c3csc(N)n3)C(=O)O)cc2)cnc1NCCN [Example 77, (S)-3-((Z)-2-(((S)-2-(4-(2-((2-aminoethyl)amino)-1-methylpyrimidin-1-ium-5-yl)phenoxy)-1-carboxyethoxy)imino)-2-(2-aminothiazol-4-yl)acetamido)-2,2-dimethyl-4-oxoazetidin-1-yl sulfate] | 0.3906 | 3.125
Cn1c(-c2ccc(OC[C@H](O/N=C(\C(=O)N[C@@H]3C(=O)N(OS(=O)(=O)O)C3(C)C)c3csc(N)n3)C(=O)O)cc2F)cn(CCCN)c1=N [Example 96, (S)-3-(4-(1-(3-aminopropyl)-2-imino-3-methyl-2,3-dihydro-1H-imidazol-4-yl)-3-fluorophenoxy)-2-((((Z)-1-(2-aminothiazol-4-yl)-2-(((S)-2,2-dimethyl-4-oxo-1-(sulfooxy)azetidin-3-yl)amino)-2-oxoethylidene)amino)oxy)propanoic acid] | 0.3906 | 6.25
CC1(C)[C@H](NC(=O)/C(=N\OCCOc2ccc(-c3nc4c([nH]3)CNCC4)cc2)c2csc(N)n2)C(=O)N1OS(=O)(=O)O [Example 86, (S)-3-(2-(2-aminothiazol-4-yl)-2-((2-(4-(4,5,6,7-tetrahydro-3H-imidazo[4,5-c]pyridin-2-yl)phenoxy)ethoxy)imino)acetamido)-2,2-dimethyl-4-oxoazetidin-1-yl hydrogen sulfate] | 1.281 | 25
